Columns and labels:
[1] = target: human FAK (Homo sapiens (Human), UniProt Q05397); conditions: read-out: FAK IC50
[2] = target: human JAK2 (Homo sapiens (Human), UniProt O60674); conditions: read-out: JAK2 IC50
human JAK2, sequence (O60674 815-1132): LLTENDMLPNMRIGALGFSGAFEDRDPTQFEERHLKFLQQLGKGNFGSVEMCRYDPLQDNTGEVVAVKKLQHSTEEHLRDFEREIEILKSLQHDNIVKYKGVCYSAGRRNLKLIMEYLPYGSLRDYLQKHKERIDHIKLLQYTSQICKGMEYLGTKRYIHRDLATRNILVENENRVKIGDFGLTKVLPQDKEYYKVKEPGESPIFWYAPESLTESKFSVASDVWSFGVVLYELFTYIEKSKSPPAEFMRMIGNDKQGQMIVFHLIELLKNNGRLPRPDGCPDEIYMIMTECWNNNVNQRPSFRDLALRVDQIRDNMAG

human FAK, sequence (Q05397 whole entry): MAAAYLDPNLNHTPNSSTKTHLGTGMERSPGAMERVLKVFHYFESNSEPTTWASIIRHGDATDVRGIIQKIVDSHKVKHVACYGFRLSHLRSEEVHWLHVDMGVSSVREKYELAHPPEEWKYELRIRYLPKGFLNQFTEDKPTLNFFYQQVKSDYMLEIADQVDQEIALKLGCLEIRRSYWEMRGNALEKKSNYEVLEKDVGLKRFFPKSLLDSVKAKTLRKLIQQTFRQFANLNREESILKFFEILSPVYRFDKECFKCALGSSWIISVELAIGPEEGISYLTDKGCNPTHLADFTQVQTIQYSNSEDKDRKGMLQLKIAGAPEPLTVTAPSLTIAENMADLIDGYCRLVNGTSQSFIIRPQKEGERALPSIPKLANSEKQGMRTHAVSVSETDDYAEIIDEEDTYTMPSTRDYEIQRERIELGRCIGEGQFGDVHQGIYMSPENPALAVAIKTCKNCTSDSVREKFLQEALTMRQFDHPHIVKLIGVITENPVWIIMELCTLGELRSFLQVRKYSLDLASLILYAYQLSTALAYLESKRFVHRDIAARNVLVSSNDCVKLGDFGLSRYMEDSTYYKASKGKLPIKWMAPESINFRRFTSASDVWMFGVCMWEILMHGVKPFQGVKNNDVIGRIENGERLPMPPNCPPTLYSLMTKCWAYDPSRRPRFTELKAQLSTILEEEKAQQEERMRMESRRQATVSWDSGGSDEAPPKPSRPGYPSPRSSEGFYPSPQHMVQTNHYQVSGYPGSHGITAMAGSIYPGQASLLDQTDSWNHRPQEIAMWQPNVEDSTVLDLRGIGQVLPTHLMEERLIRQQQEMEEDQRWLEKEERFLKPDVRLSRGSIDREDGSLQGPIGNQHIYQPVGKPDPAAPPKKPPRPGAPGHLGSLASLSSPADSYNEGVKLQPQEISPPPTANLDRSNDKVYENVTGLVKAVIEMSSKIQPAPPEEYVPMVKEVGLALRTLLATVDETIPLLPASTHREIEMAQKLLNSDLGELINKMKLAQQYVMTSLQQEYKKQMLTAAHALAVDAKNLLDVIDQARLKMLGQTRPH

SMILES | IC50 [1] [nM] | IC50 [2] [nM]
CN1CCN(c2ccc(Nc3nc4c(-c5ccc(C(F)(F)F)cc5)cccn4n3)cc2)CC1 [Example 64, [4-(4-Methyl-piperazin-1-yl)-phenyl]-[8-(4-trifluoromethyl-phenyl)-[1,2,4]triazolo[1,5-a]pyridin-2-yl]-amine] | 1250 | 3.1
CN1Cc2ccc(Nc3nc4c(NCc5ccccc5N(C)S(C)(=O)=O)cccn4n3)cc2C1 [Example 167, N-Methyl-N-(2-{[2-(2-methyl-2,3-dihydro-1H-isoindol-5-ylamino)-[1,2,4]triazolo[1,5-a]pyridin-8-ylamino]-methyl}-phenyl)-methanesulfonamide] | 17.8 | 9.19
COc1ncccc1-c1cccn2nc(Nc3ccc(C4CCN(CC(=O)N(C)C)CC4)cc3)nc12 [Example 273, 2-(4-{4-[8-(2-Methoxy-pyridin-3-yl)-[1,2,4]triazolo[1,5-a]pyridine-2-ylamino]-phenyl}-piperidin-1-yl)-N,N-dimethyl-acetamide] | 999 | 251
CN1CCN(c2cccc(N(c3cccc(N4CCN(C)CC4)c3)c3nc4c(-c5ccc(S(C)(=O)=O)cc5)cc(F)cn4n3)c2)CC1 [Example 105, [6-Fluoro-8-(4-methanesulfonyl-phenyl)-[1,2,4]triazolo[1,5-a]pyridin-2-yl]-bis-[3-(4-methyl-piperazin-1-yl)-phenyl]-amine] | 1050 | 324
CN1CCN(c2ccc(Nc3nc4c(-c5ccccc5S(C)(=O)=O)cccn4n3)cc2)CC1 [Example 66, [8-(2-Methanesulfonyl-phenyl)-[1,2,4]triazolo[1,5-a]pyridin-2-yl]-[4-(4-methyl-piperazin-1-yl)-phenyl]-amine] | 10000 | 1330
CN(C)C(=O)CN1CCc2ccc(Nc3nc4c(-c5cc(C(F)(F)F)ccc5OCC(F)F)cccn4n3)cc2CC1 [Example 329, 2-(7-{8-[2-(2,2-Difluoro-ethoxy)-5-trifluoromethyl-phenyl]-[1,2,4]triazolo[1,5-a]pyridin-2-ylamino}-1,2,4,5-tetrahydro-3-benzazepin-3-yl)-N,N-dimethyl-acetamide] | 999 | 317
CS(=O)(=O)c1ccc(-c2cccn3nc(Nc4cccc(C5CCN(CC(N)=O)CC5)c4)nc23)cc1 [Example 184, 2-(4-{3-[8-(4-Methanesulfonyl-phenyl)-[1,2,4]triazolo[1,5-a]pyridin-2-ylamino]-phenyl}-piperidin-1-yl)-acetamide] | 384 | 0.41
CN1CCN(C2CCN(c3ccc(Nc4nc5c(-c6ccc(S(C)(=O)=O)cc6)cccn5n4)cc3)CC2)CC1 [Example 51, [8-(4-Methanesulfonyl-phenyl)-[1,2,4]triazolo[1,5-a]pyridin-2-yl]-{4-[4-(4-methyl-piperazin-1-yl)-piperidin-1-yl]-phenyl}-amine] | 168 | 1.8
CS(=O)(=O)c1ccc(Oc2cccn3nc(Nc4cnn(CCN5CCCC5)c4)nc23)cc1 [Example 217, [8-(4-Methanesulfonyl-phenoxy)-[1,2,4]triazolo[1,5-a]pyridin-2-yl]-(1-(2-pyrrolidin-1-yl-ethyl)-1H-pyrazol-4-yl]-amine] | 1220 | 3000
CN1CCN(c2ccc(Nc3nc4c(NCc5ccccc5S(C)(=O)=O)cccn4n3)cc2)CC1 [Example 138, N(8)-(2-Methanesulfonyl-benzyl)-N(2)-[4-(4-methyl-piperazin-1-yl)-phenyl]-[1,2,4]triazolo[1,5-a]pyridine-2,8-diamine] | 199 | 13.2
COc1ccc(Nc2nc3c(-c4cnn(S(C)(=O)=O)c4)cccn3n2)cc1 [Example 42, [8-(1-Methanesulfonyl-1H-pyrazol-4-yl)-[1,2,4]triazolo[1,5-a]pyridin-2-yl]-(4-methoxy-phenyl)-amine] | 507 | 3
FC(F)(F)c1cccc(-c2cccn3nc(Nc4ccc5c(c4)CCNCC5)nc23)c1 [Example 375, (2,3,4,5-Tetrahydro-1H-3-benzazepin-7-yl)-[8-(3-trifluoromethyl-phenyl)-[1,2,4]triazolo[1,5-a]pyridin-2-yl]-amine] | 422 | 42.5
CN1CCN(c2cccc(Nc3nc4c(-c5ccc(P(C)(C)=O)cc5)cccn4n3)c2)C(=O)C1 [Example 207, 1-(3-{8-[4-(Dimethyl-phosphinoyl)-phenyl]-[1,2,4]triazolo[1,5-a]pyridin-2-ylamino}-phenyl)-4-methyl-piperazin-2-one] | 10000 | 10.5
COc1cccc(CNc2cccn3nc(Nc4cccnc4)nc23)c1 [Example 398, N(8)-(3-Methoxy-benzyl)-N(2)-pyridin-3-yl-[1,2,4]triazolo[1,5-a]pyridine-2,8-diamine] | 10000 | 816
CN1CCC(c2ccc(Nc3nc4c(Nc5ccccc5S(C)(=O)=O)cccn4n3)cc2)CC1 [Example 125, N(8)-(2-Methanesulfonyl-phenyl)-N(2)-[4-(1-methyl-piperidin-4-yl)-phenyl]-[1,2,4]triazolo[1,5-a]pyridine-2,8-diamine] | 2050 | 6.6
CN1CCN(c2cccc(Nc3nc4c(-c5ccc(P(C)(C)=O)cc5)cccn4n3)c2)CC1 [Example 198, {8-[4-(Dimethyl-phosphinoyl)-phenyl]-[1,2,4]triazolo[1,5-a]pyridin-2-yl}-[3-(4-methyl-piperazin-1-yl)-phenyl]-amine] | 10000 | 1.73

SMILES | IC50 [1] [nM] | IC50 [2] [nM]
CN1CCN(c2ccc(Nc3nc4cccc(-c5ccc(S(C)(=O)=O)cc5)n4n3)cc2)CC1 [Example 81, [5-(4-Methanesulfonyl-phenyl)-[1,2,4]triazolo[1,5-a]pyridin-2-yl]-[4-(4-methyl-piperazin-1-yl)-phenyl]-amine] | 421 | 6.9
COc1cccc(CNc2cccn3nc(Nc4ccc(C)nc4)nc23)c1 [Example 405, N(8)-(3-Methoxy-benzyl)-N(2)-(6-methyl-pyridin-3-yl)-[1,2,4]triazolo[1,5-a]pyridine-2,8-diamine] | 10000 | 1020
Cc1ccc(-c2cccn3nc(Nc4ccc5c(c4)CCNCC5)nc23)c(OCC(C)C)c1 [Example 296, [8-(2-Isobutoxy-4-methyl-phenyl]-[1,2,4]triazolo[1,5a]pyridine-2-yl]-(2,3,4,5-tetrahydro-benzo[d]azepin-7-yl)-amine] | 3000 | 2800
FC(F)(F)c1ccc(-c2cccn3nc(Nc4cnn(CCN5CCCC5)c4)nc23)cc1 [Example 216, [1-(2-Pyrrolidin-1-yl-ethyl)-1H-pyrazol-4-yl]-[8-(4-trifluoromethyl-phenyl)-[1,2,4]triazolo[1,5-a]pyridin-2-yl]-amine] | 10000 | 9.1
CN(c1ncccc1CNc1cccn2nc(Nc3ccc(S(C)(=O)=O)cc3)nc12)S(C)(=O)=O [Example 134, N-(3-{[2-(4-Methanesulfonyl-phenylamino)-[1,2,4]triazolo[1,5-a]pyridin-8-ylamino]-methyl}-pyridin-2-yl)-N-methyl-methanesulfonamide] | 752 | 17.3
CS(=O)(=O)c1cccc(-c2cccc3nc(Nc4ccc(N5CCOCC5)cc4)nn23)c1 [Example 78, [5-(3-Methanesulfonyl-phenyl)-[1,2,4]triazolo[1,5-a]pyridin-2-yl]-(4-morpholin-4-yl-phenyl)-amine] | 1530 | 3.2
CS(=O)(=O)c1ccc(-c2cccn3nc(Nc4cnn(C5CCNCC5)c4)nc23)cc1 [Example 213, [8-(4-Methanesulfonyl-phenyl)-[1,2,4]triazolo[1,5-a]pyridin-2-yl]-(1-piperidin-4-yl-1H-pyrazol-4-yl)-amine] | 3000 | 0.71
CN1CCN(c2cccc(Nc3nc4c(-c5ccc(N6CCC(N7CCN(C)CC7)CC6)cc5)cccn4n3)c2)CC1 [Example 206, [3-(4-Methyl-piperazin-1-yl)-phenyl]-(8-{4-[4-(4-methyl-piperazin-1-yl)-piperidin-1-yl]-phenyl}-[1,2,4]triazolo[1,5-a]pyridin-2-yl)-amine] | 3000 | 45
COc1cccc(CNc2cccn3nc(Nc4ccc(N5CCN(C)CC5)cc4)nc23)c1 [Example 390, N(8)-(3-Methoxy-benzyl)-N(2)-[4-(4-methyl-piperazin-1-yl)-phenyl]-[1,2,4]triazolo[1,5-a]pyridine-2,8-diamine] | 10000 | 1340
CN(C)C(=O)CN1CCc2ccc(Nc3nc4c(-c5cccc6c5OC(F)(F)O6)cccn4n3)cc2CC1 [Example 248, 2-(7-[8-(2,2-difluoro-1,3-benzodioxol-4-yl)-[1,2,4]triazolo[1,5-a]pyridin-2-yl-amino]-1,2,4,5-tetrahydro-3-benzazepin-3-yl)-N—N-dimethyl-acetamide] | 1700 | 30.4
CN1CCC(c2ccc(Nc3nc4c(NCc5ccccc5S(C)(=O)=O)cccn4n3)cc2)CC1 [Example 140, N(8)-(2-Methanesulfonyl-benzyl)-N(2)-[4-(1-methyl-piperidin-4-yl)-phenyl]-[1,2,4]triazolo[1,5-a]pyridine-2,8-diamine] | 124 | 22.6
Cc1ccc(OCC(C)C)c(-c2cccn3nc(Nc4ccc5c(c4)CCNCC5)nc23)c1 [Example 305, [8-(2-Isobutoxy-5-methyl-phenyl]-[1,2,4]triazolo[1,5a]pyridine-2-yl]-(2,3,4,5-tetrahydro-benzo[d]azepin-7-yl)-amine] | 10000 | 3080
CCOc1ccc(C(F)(F)F)cc1-c1cccn2nc(Nc3ccc4c(c3)CCNCC4)nc12 [Example 319] | 1310 | 137
CS(=O)(=O)c1ccc(-c2cccn3nc(NCc4cccnc4)nc23)cc1 [Example 408, [8-(4-Methanesulfonyl-phenyl)-[1,2,4]triazolo[1,5-a]pyridin-2-yl]-pyridin-3-ylmethyl-amine] | 10000 | 2760
CN1CCN(c2ccc(Nc3nc4c(NCc5cccc(N(C)S(C)(=O)=O)c5)cccn4n3)cc2)CC1 [Example 169, N-Methyl-N-[3-({2-[4-(4-methyl-piperazin-1-yl)-phenylamino]-[1,2,4]triazolo[1,5-a]pyridin-8-ylamino}-methyl)-phenyl]-methanesulfonamide] | 6500 | 145

Reference: patent publication US8501936B2 (priority 2009, dated 2013)
